In US6900182B1, “Inositolphosphoglycan and ribose for treatment of ischaemia-reperfusion injury” (Sylus Pharmaceuticals Ltd., priority 1998, dated 2005):

Columns and labels:
[1] = system: rat heart preparations; test: tissue PRPP concentration of rat heart preparations in anoxic conditions; conditions: ribose added to the medium
Text: Perhaps of greater significance was our observation of the decline in cellular PRPP in a range of tissues, including heart, in experimental diabetes (see Table 1).

[2] = system: myocardial adenine nucleotides; conditions: cited from earlier work
[3] = system: IPG P-type; test: extractable IPG P-type from tissues before and after insulin (PDH phosphatase assay); type: in vivo, rats; conditions: 2 minutes after injection with insulin
Protocol: FIGS. 4C and 4D show the steady state concentration and the effect of insulin on extractable IPG P-type from heart and other tissues from adult male rats. […] The solid columns show results in the absence of insulin, while the hatched columns show results 2 minutes after injection with insulin. 1 unit is the amount of P-type IPG causing a 50% increase in the activity of PDH phosphatase or a 50% decrease in the activity of cAMP dependent protein kinase.
Under anoxic conditions, this is difficult since the enzyme PDH kinase is activated. The action of this enzyme is to inactivate the PDH complex, which is involved in the biosynthesis of acetyl-CoA and NADH. The NADH so generated in the reperfusion period is oxidized by the electron transport chain to generate ATP. The acetyl-CoA is a substrate for the Krebs cycle in which one glucose can be oxidized to 36 ATPs via the generation of further NADH. The action of IPG-P type mediators is to activate PDH phosphatase which counteracts the PDH kinase and allows for activation of the PDH complex.

| Molecule | tissue PRPP concentration [1] | restitution of myocardial adenine nucleotides ([2]; Zimmer (1980)) | global heart function ([2]; overloaded and catecholamine-stimulated heart and infarcted heart rat models, Zimmer (1996)) | normalisation of depressed heart function ([2]; rats, Zimmer (1983)) | IPG P-type activity recovered from tissue upon insulin infusion ([3]; adipose tissue) | IPG P-type activity recovered from tissue upon insulin infusion ([3]; brain) | IPG P-type activity recovered from tissue upon insulin infusion ([3]; heart) | IPG P-type activity recovered from tissue upon insulin infusion ([3]; kidney) | IPG P-type activity recovered from tissue upon insulin infusion ([3]; muscle) |
| --- | --- | --- | --- | --- | --- | --- | --- | --- | --- |
| O=C[C@H](O)[C@H](O)[C@H](O)CO [ribose] | partially restored | accelerated | improvement in global heart function | accelerated |  |  |  |  |  |
| insulin |  |  |  |  | decreased activity | decreased activity | decreased activity | increase in activity | increase in activity |
